Laboratory results as given in patent US7998460B2, “Prevention of deficits in neurogenesis with anti-inflammatory agents” (The Board of Trustees of the Leland Stanford Junior …, priority 2003, dated 2011).
Entries after “also recorded” stand apart in the source; their conditions may differ.

How the values were obtained:
hippocampal neurogenesis = assay: LPS-induced systemic inflammation, hippocampal neurogenesis, one-week BrdU labeling paradigm; type: in vivo, rat
Description: To determine the effects of inflammation on adult hippocampal neurogenesis, bacterial lipopolysaccharide (LPS) was injected into adult female rats to induce systemic inflammation. The intraperitoneal administration of LPS causes a peripheral inflammatory cascade that is transduced to the brain via IL-1β from the cerebral vasculature and causes a strong upregulation of central pro-inflammatory cytokine production. Following LPS exposure, rats were treated systemically with bromo-deoxyuridine (BrdU) for 6 days to label proliferating cells within the hippocampus. Animals were then sacrificed on the 7th day. The fate of the BrdU-labeled, proliferative cells was analyzed with immuno-fluorescent staining and confocal microscopy.
Control animals were given either vehicle (5% bicarbonate) injections i.p. or plain dog food. To ensure complete consumption of food and medication in the 2 month paradigm, rats were restricted to 80% of their ad lib intake.
LPS exposure. Bacterial lipopolysaccharide (LPS, Sigma, St Louis, Mo.) was administered in sterile saline by intraperitoneal injection at a dose of 1 mg/Kg one time. This caused mild sickness behavior (decreased grooming, decreased locomotor activity, increased piloerection) for approximately 2 days, resolving by the 3rd day. The dose of LPS chosen causes mild sickness behavior in rats that resolves within 1-2 days; the dose of LPS used to induce endotoxic shock is 10-fold higher than that used in the present study.
Immunocytochemistry and immunofluorescent staining. Free floating sections were immunostained as previously described using the following primary antibodies and working concentrations: mouse anti-NeuN (1:4, gift from R. Mullen); guinea pig-anti GFAP (1:800, Harlan, Indianapolis, Ind.); mouse anti-type III βtubulin (Tuj-1, 1:500, Berkeley Antibody Co., Richmond, Calif.); rabbit anti-NG2 (1:200, Chemicon, Temecula, Calif.); mouse anti-rat CD11b (1:200, Serotec, Oxford, U.K.); mouse anti-ED-1 (1:100, Research Diagnostics Inc., Flanders, N.J.); biotinylated-Lycopersicon esculentum (tomato) lectin (1:200, Vector, Burlingame, Calif.).
Confocal microscopy. All confocal microscopy was performed using a Zeiss 510 confocal microscope. Appropriate gain and black level settings were determined on control tissues stained with secondary antibodies alone. Upper and lower thresholds were always set using the range indicator function to minimize data loss through saturation.
Cell counting and unbiased stereology. All counts were limited to the hippocampal granule cell layer proper and a 50 μm border along the hilar margin that included the neurogenic subgranule zone. The proportion of BrdU cells displaying a lineage-specific phenotype was determined by scoring the co-localization of cell phenotype markers with BrdU using confocal microscopy. Split panel and z-axis analysis were used for all counting. All counts were performed using multi-channel configuration with a 40× objective and electronic zoom of 2. When possible, 100 or more BrdU-positive cells were scored for each marker per animal. Each cell was manually examined in its full “z”-dimension and only those cells for which the nucleus was unambiguously associated with the lineage-specific marker were scored as positive. The total number of BrdU-labeled cells per hippocampal granule cell layer and subgranule zone was determined using diaminobenzadine stained tissues. In a separate series, the total number of ED1-labeled cells per dentate gyrus was also determined using diaminobenzadine stained tissue. Stained BrdU-positive nuclei or ED1-positive cells were scored under light microscopy using Microbrightfield Stereo Investigator software and the Fractionator method. Overestimation was corrected using the Abercrombie method for nuclei with empirically determined average diameter of 13 μm within a 40 μm section.

adult rats = assay: Barnes maze after LPS; type: in vivo, rat
Excerpt: LPS-induced inflammatory response impairs performance in the Barnes maze. It has been reported previously that irradiation and LPS-induced inflammation impair performance in hippocampus-dependent spatial tasks. The present studies confirm that LPS treatment impaired recall of a goal position learned prior to LPS treatment. The Barnes maze is a 6-foot diameter bright white platform with 8 escape boxes under holes in the rim of the platform. All escape holes are blocked except one and the rat is initially placed in the goal box for familiarization. The rat is then placed in the center of the maze and is allowed to find its way back to the goal box to escape the aversive brightly lit platform. Learning is seen as a decrease in the distance traveled to reach the goal box with consecutive trials on a given day and in repeat sessions on sequential days. One measure of recall is to determine distance traveled when the animal is tested on the same task after a time delay or after experimental treatments.
To determine if there were differences in recall following LPS treatment, animals were trained on the Barnes maze for 5 consecutive days prior to LPS treatment. LPS was given on day 0 and animals tested for recall on day 7. Low-dose intraperitoneal LPS treatment makes animals feel mildly ill and they will reduce their water and food intake for a period of one or two days. There is a temporary weight loss that is fully recovered by day 7.
Animals were weighed daily and after 7 days tested for memory retention on the Barnes maze. On days 8-11, animals were re-trained for their ability to learn the position of a new goal box in the Barnes maze. Animals were then tested on day 14 for the ability to remember the position of the second goal box. LPS caused a ˜14% increase in the distance traveled to the goal box learned prior to LPS treatment, indicating impaired spatial memory. LPS caused a significant increase (˜28%) in the distance traveled during day 8 trials used to learn the position of the new goal box (indicating impaired spatial learning) but all animals eventually learned the position of the goal box by day 11 (no difference in distance traveled between LPS and control groups).

[1] = indomethacin 2.5 mg/kg i.p. twice each day with LPS
[2] = LPS 1 mg/Kg i.p. once, sacrifice on 7th day

Row | Compound | effect on density of activated microglia (ED1+) after LPS (hippocampal neurogenesis; [1]) | effect on distance from BrdU+ nucleus to nearest vessel after LPS (hippocampal neurogenesis; [1]) | effect on LPS-induced inhibition of neurogenesis (hippocampal neurogenesis; indomethacin 2.5 mg/kg i.p. twice each day, concurrently with LPS) | effect on neurogenesis in control animals (drug alone) (hippocampal neurogenesis; indomethacin 2.5 mg/kg i.p. twice each day, no LPS) | learning and memory, drug alone by intraperitoneal injection (adult rats; indomethacin 2.5 mg/kg twice daily i.p., no LPS) | learning and memory, oral drug alone (adult rats; indomethacin 2.5 mg/kg twice daily oral, no LPS) | effect on LPS effects on memory retention and learning of second goal box (adult rats; oral indomethacin 2.5 mg/kg twice daily with LPS) | decrease in hippocampal neurogenesis (proportion of non-microglial BrdU+ cells co-expressing Dcx) (hippocampal neurogenesis; [2]) | increase in the density of activated microglia (CD68/ED1-positive) in the dentate gyrus (hippocampal neurogenesis; [2]) | increase in distance traveled to the goal box learned prior to LPS treatment (adult rats; day 7 after LPS, memory retention) | increase in distance traveled during day 8 trials to learn the new goal box (adult rats; day 8 after LPS, spatial learning)
1 | COc1ccc2c(c1)c(CC(=O)O)c(C)n2C(=O)c1ccc(Cl)cc1 [indomethacin] | decreases this inflammatory response | restores the vascular association | completely blocked; also recorded: restores neurogenesis | no effect | perform more poorly in all tasks at all time points | no measurable effects | completely reverse | – | – | – | –
2 | lipopolysaccharide [LPS] | – | – | – | – | – | – | – | 35% | 240% | ~14% | ~28%
